According to US11512042B2, “Enamine compounds for absorbance of electromagnetic energy” (Commonwealth Scientific and Industrial Research Organisation, priority 2015, dated 2022):
Several values for one entry are separate records, joined by “and”; a condition that tells them apart may be missing. Equal entries are not always repeated.

Columns and labels:
Assay type in all cases: physicochemical
[1] = UV absorbance spectrum in solution (λmax, λcrit, extinction coefficients); details: for λcrit: critical wavelength; for E (1%, 1 cm): mass extinction coefficient; for ε: molar extinction coefficient, in M-1 cm-1 (unit assumed)
How it was run: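 Spectra taken on 0.001% solutions in methanol, 10 mm path. Breakthrough is the wavelength where transmittance rises above 1%; steepness is the nm span over which transmittance goes from 1 to 80%.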

[2] = % transmission spectrum of 0.1% solution (breakthrough, steepness); details: for Steepness: distance in nm over which transmittance increases from 1 to 80%; for Breakthrough (1% T at 0.1%): value in nm where transmittance increases beyond 1%, 0.1% solution
Source text: FIG. 2 is a is a graphical representation of the % transmission of compounds 142 and 143 measured in a 2 mm cuvette as 0.1% solutions in methanol (142 is the left most trace);
The synthesised benzoyl functionalised compounds and their spectroscopic properties can be seen in table 2 wherein; breakthrough denotes the value in nm where transmittance increases beyond 1%; steepness refers to the distance in nm over which transmittance increases from 1 to 80% (a higher value indicates a less steep transition from absorbing to transmitting and is generally unfavourable); and ^a denotes an average of multiple measurements. As a general comment, it can be noted that the benzoyl substituted compounds gave similar absorbance maxima to the corresponding trifluoroacetyl derivative.

[3] = Photostability protocol: thin film irradiated with xenon arc lamp; details: 1 hour xenon arc lamp; for Photostability: ratio of absorbance at λmax irradiated vs unirradiated, ^a = average of multiple measurements
Experimental: 1 mL of a 3% solution of the test compound (30 mg of test compound in 1 mL solvent) was prepared in a solvent mix made up of 50% EtOH and 25% capric/caprylic triglyceride and 25% C12-C15 alkyl benzoate. 50 μL of this solution (containing 1.5 mg of test compound) was added carefully to the centre of a glass microscope slide and the volatile components left to evaporate in the dark for at least 3 hours to give a liquid film. The prepared films were then exposed for 1 hour to an Eimac 150 W xenon arc lamp filtered through Pyrex (15 Amp supply current, samples 19 cm from the lamp) previously allowed to warm up for 15 minutes prior to sample exposure. The irradiation was performed in a fume cupboard where the air flow was sufficient to keep sample T<30° C. One hour's exposure represented a calculated radiation dose (using meter) of approximately 100 MED.
In order to calculate the photostability of the test compounds, the exposed slides were placed in a beaker and rinsed with 2×5 mL EtOH, 1×5 mL MeOH. The combined washings were then added to a 100 mL volumetric flask and made up to 100 mL total volume with methanol. The UV absorbance was then measured in a 10 mm cuvette. The percent stability is measured as the ratio of absorbance at λmax for the irradiated sample compared to the unirradiated sample.
The thin films are a good surrogate for testing the stability of a candidate in, for example, a sunscreen formulation as they use cosmetic emollients as solvent and are formed at cosmetically relevant concentrations.

| λmax [1] | λcrit [1] | E (1%, 1 cm) [1] | ε [1] | Steepness [2] | Breakthrough (1% T at 0.1%) [2] | Photostability (% remains) [3] | Photostability [3] | SMILES |
| --- | --- | --- | --- | --- | --- | --- | --- | --- |
| 319 nm | 350 nm | 860 | 23306 | 23 nm | 361 nm | 97% | 97% | CCN(/C=C(\C(=O)C(F)(F)F)c1ccccc1)CC [Compound 144] |
| 329 nm | 368 nm | 728 | 23523 | 38 nm | 383 nm | – | 78% | CCOC(=O)C(=O)/C(=C\N(CC)c1ccccc1)c1ccccc1 [Compound 248] |
| 361 nm | 386 nm | 893 | 29026 | 37 nm | 420 nm | – | 70% | O=C(/C(=C/N1CCc2ccccc21)c1ccccc1)c1ccccc1 [Compound 243] |
| 366 nm | 389 nm | 940 | 32824 | 32 nm | 417 nm | – | 76% | CC(C)(C)OC(=O)C(=O)/C(=C/N1CCc2ccccc21)c1ccccc1 [Compound 267] |
| 370 nm | 389 nm | 1260 | 51191 | 22 nm | 412 nm | – | 53% | CCN(CC)C(=O)C(=O)/C(=C/N1CCc2cc(C(=O)OC)ccc21)c1ccccc1 [Compound 290] |
| 368 nm | 385 nm | 1307 | 49288 | 16 nm | 402 nm | – | 68% | COC(=O)c1ccc2c(c1)CCN2C=C(C(=O)C(C)(C)C)c1ccc(C)cc1 [Compound 295] |
| 369 nm | 382 nm | 1164 | 60921 | 24 nm | 399 nm | – | 94% and 93% | CCCCC(CC)COC(=O)c1ccc2c(c1)CCN2C=C(C(=O)c1c(C)cc(C)cc1C)c1ccccc1 (stereo not drawn) [Compound 303] |
| 345 nm | 378 nm | 666 | 27034 | 34 nm | 398 nm | – | 76% | COc1ccccc1C(=O)/C(=C/N(c1ccccc1)c1ccccc1)c1ccccc1 [Compound 285] |
| 346 nm | 378 nm | 382 | 14163 | 32 nm | 394 nm | – | 85% | CN(C)C(=O)C(=O)/C(=C/N(c1ccccc1)c1ccccc1)c1ccccc1 [Compound 257] |
| 340 nm | 381 nm | 433 | 18791 | 46 nm | 403 nm | – | 20% | CCN(/C=C(/C(=O)c1ccc(S(=O)(=O)N(C)C)cc1)c1ccccc1)c1ccccc1 [Compound 264] |
| 341 nm | 373 nm | 738 | 28714 | 37 nm | 389 nm | – | 60% | Cc1ccccc1C(=O)/C(=C/N(c1ccccc1)c1ccccc1)c1ccccc1 [Compound 250] |
| 357 nm | 385 nm | 451 | 15933 | 43 nm | 405 nm | – | 53% | CC1(C)CN(/C=C(/C(=O)c2ccccc2)c2ccccc2)c2ccccc21 [Compound 246] |

Further lines, the compound ahead of its results:

| SMILES | λmax [1] | λcrit [1] | E (1%, 1 cm) [1] | ε [1] | Steepness [2] | Breakthrough (1% T at 0.1%) [2] | Photostability (% remains) [3] | Photostability [3] |
| --- | --- | --- | --- | --- | --- | --- | --- | --- |
| COC(=O)c1ccc2c(c1)CCN2/C=C(/C(=O)C(=O)OC(C)(C)c1ccccc1)c1ccccc1 [Compound 280] | 357 nm | 370 nm | 1440 | 67567 | 21 nm | 384 nm | – | 68% |
| CCN(/C=C(/C(=O)c1ccccc1)c1ccccc1)CC [Compound 268] | 312 nm | 360 nm | 656 | 18293 | 48 nm | 374 nm | – | 10% |
| COC(=O)c1ccc2c(c1)CCN2/C=C(/C(=O)c1ccccc1O[Si](C)(C)C(C)(C)C)c1ccccc1 [Compound 302] | 369 nm | 384 nm | 1089 | 55852 | 26 nm | 01 nm | – | 45% |
| CCOC(=O)C(=O)/C(=C/N(c1ccccc1)c1ccccc1)c1ccccc1 [Compound 237] | 348 nm | 380 nm | 775 | 28737 | 39 nm | 400 nm | – | 83% |
| CCN(/C=C(/C(=O)c1ccc(C)cc1)c1ccccc1)c1ccccc1 [Compound 273] | 336 nm | 376 nm | 614 | 20922 | 37 nm | 394 nm | – | 73% |
| COC(=O)c1ccc2c(c1)CCN2/C=C(/C(=O)C(=O)OC(C)(C)C)c1ccccc1 [Compound 269] | 374 nm | 391 nm | 1033 | 42074 | 26 nm | 419 nm | – | 94% and 94^a % and 98% and 91% |
| COC(=O)c1ccc2c(c1)CCN2/C=C(/C(=O)c1ccccc1)c1ccccc1 [Compound 247] | 371 nm | 389 nm | 1096 | 41977 | 34 nm | 422 nm | – | 76% |
| COC(=O)c1ccc2c(c1)CCN2C=C(C(=O)c1c(C)cc(C)cc1C)c1ccccc1 [Compound 282] | 368 nm | 382 nm | 1427 | 60650 | 23 nm | 402 nm | – | 89% and 91% |
| COC(=O)c1ccc2c(c1)CCN2/C=C(/C(=O)c1ccc(C(C)(C)C)cc1)c1ccccc1 [Compound 287] | 373 nm | 389 nm | 1007 | 44238 | 35 nm | 425 nm | – | 76% |
| COC(=O)c1ccc2c(c1)CCN2/C=C(\C(=O)C(F)(F)F)c1ccccc1 [Compound 201] | 373 nm | 391 nm | 1230 | 46134 | 18 nm | 420 nm | 97% | 97% |
| CCCCC(CC)COC(=O)c1ccc2c(c1)CCN2/C=C(/C(=O)C(C)(C)C)c1ccc(C#N)cc1 (stereo not drawn) [Compound 310] | 368 nm | 385 nm | 1039 | 50502 | 22 nm | 402 nm | – | 78% and 81% |
| CC(C)(C)OC(=O)C(=O)/C(=C/N(c1ccccc1)c1ccccc1)c1ccccc1 [Compound 270] | 349 nm | 381 nm | 551 | 22023 | 35 nm | 400 nm | – | 89% |
| CCOC(=O)C(=O)/C(=C/N1CCc2cc(C(=O)OC)ccc21)c1ccccc1 [Compound 256] | 372 nm | 391 nm | – | 48566 and 46566 | 28 nm | 421 nm | – | 85% |
| CCN(/C=C(\C(=O)C(=O)N(C)C)c1ccccc1)c1ccccc1 [Compound 259] | 326 nm | 365 nm | 724 | 23336 | 34 nm | 378 nm | – | 66% |
